Reference: patent US20230167073A1 (Teijin Pharma Limited, priority 2020, published 2023)

biological target: T1, Human TRPC6 (Homo sapiens, UniProt Q9Y210); test: Evaluation of TRPC6 channel inhibitory activity (1), FLIPR Calcium 5 Assay Kit, OAG stimulation (Compound Nos. 1-1293); assay type: cell-based; settings: Human TRPC6 stably-expressing cells, OAG 30 μM, FLIPR Calcium 5 Assay Kit; read-out: Inhibitory activity (pIC50 class) (converted)
T1 construct: expressed in transfected cells
T1 sequence (Q9Y210 1-931): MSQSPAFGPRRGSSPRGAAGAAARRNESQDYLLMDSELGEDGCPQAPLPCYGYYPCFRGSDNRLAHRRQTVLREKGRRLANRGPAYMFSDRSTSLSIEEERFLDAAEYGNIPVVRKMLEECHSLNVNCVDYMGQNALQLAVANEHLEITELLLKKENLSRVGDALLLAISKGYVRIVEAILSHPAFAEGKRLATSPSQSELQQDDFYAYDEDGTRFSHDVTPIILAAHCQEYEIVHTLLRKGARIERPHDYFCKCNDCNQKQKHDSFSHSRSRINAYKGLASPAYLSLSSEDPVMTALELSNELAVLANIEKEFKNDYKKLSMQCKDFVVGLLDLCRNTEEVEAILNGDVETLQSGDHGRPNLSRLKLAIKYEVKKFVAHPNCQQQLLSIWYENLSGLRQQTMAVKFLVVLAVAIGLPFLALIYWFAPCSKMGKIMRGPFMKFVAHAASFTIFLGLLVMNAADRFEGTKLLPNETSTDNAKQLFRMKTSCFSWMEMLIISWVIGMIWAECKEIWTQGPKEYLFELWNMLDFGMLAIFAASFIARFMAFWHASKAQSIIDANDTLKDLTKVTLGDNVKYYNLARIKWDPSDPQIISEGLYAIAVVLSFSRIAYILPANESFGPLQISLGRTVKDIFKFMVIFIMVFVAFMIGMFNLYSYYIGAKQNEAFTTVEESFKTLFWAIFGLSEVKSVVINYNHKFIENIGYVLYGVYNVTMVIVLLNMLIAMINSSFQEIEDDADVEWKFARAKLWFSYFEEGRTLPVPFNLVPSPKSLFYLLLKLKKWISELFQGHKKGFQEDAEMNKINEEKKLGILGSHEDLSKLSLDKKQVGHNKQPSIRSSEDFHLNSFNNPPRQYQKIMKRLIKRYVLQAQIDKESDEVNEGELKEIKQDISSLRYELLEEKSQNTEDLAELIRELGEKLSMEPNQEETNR
Method: Evaluation of TRPC6 Channel Inhibitory Activity (1) (Compound Nos. 1-1293)
In order to investigate TRPC6 channel inhibitory activity of the compounds, evaluation was conducted using FLIPR® Calcium 5 Assay Kit (Molecular Devices) in accordance with the following procedure. Human TRPC6 stably-expressing cells were seeded in a 384-well black clear bottom plate at a density of 5×10^3/well and cultured in an incubator at 37° C. 5% CO2 for 24 hours. Thereafter, 25 μL of a Non Wash Dye Solution, prepared using Component A, 20 mM HEPES-HBSS and 250 mM probenecid, all of which are included in the kit, was added to each well, and the plate was incubated for 30 minutes. A volume of 12.5 μL of a compound solution was added into each well while the fluorescence was measured with FLIPR tetra. After 20 minutes, 12.5 μL of a 1-oleoyl-2-acetyl glycerol (OAG) solution was added at a final concentration of 30 μM. The difference between the minimum fluorescence intensity before the addition of the compound and the maximum fluorescence intensity after the addition of OAG was defined as a signal. An inhibition rate was calculated, assuming the average signal of wells without the compound as the inhibition rate of 0% and the average signal of wells without the compound and OAG as the inhibition rate of 100%. The calculated inhibition rate was analyzed by a four-parameter logistic regression to quantify the inhibition rate in the logarithm of the inverse of the effective concentration which gives a 50% inhibition rate (pIC50). The intensity was expressed by the following symbols (+, ++, +++).

Row | SMILES | IC50
1 | Cc1nc(Oc2cc(C#N)ccc2-c2ccc(CCN)cc2)cc(N2CCCC2)n1 [Compound 25, 4-[4-(2-aminoethyl)phenyl]-3-(2-methyl-6-pyrrolidin-1-ylpyrimidin-4-yl)oxybenzonitrile] | < 0.01 µM
2 | Cc1nc(Oc2cc(C#N)ccc2-c2ccc(CCN)cc2)cc(N2CC(F)(F)C(F)(F)C2)n1 [Compound 26, 4-[4-(2-aminoethyl)phenyl]-3-[2-methyl-6-(3,3,4,4-tetrafluoropyrrolidin-1-yl)pyrimidin-4-yl]oxybenzonitrile] | < 0.01 µM
3 | Cc1nc(Oc2cc(C#N)ccc2-c2ccc(CCN)cc2)cc(N2CCCCCC2)n1 [Compound 27, 4-[4-(2-aminoethyl)phenyl]-3-[6-(azepan-1-yl)-2-methylpyrimidin-4-yl]oxybenzonitrile] | 0.01 to 1 µM
4 | Cc1nc(Oc2cc(C#N)ccc2-c2ccc(CCN)cc2)cc(-c2cccn2C)n1 [Compound 28, 4-[4-(2-aminoethyl)phenyl]-3-[2-methyl-6-(1-methylpyrrol-2-yl)pyrimidin-4-yl]oxybenzonitrile] | 0.01 to 1 µM
5 | Cc1nc(Oc2cc(C#N)ccc2-c2ccc(CCN)cc2)cc(-c2ccn(C)c2)n1 [Compound 29, 4-[4-(2-aminoethyl)phenyl]-3-[2-methyl-6-(1-methylpyrrol-3-yl)pyrimidin-4-yl]oxybenzonitrile] | 0.01 to 1 µM
6 | Cc1nc(Oc2cc(C#N)ccc2-c2ccc(CCN)cc2)cc(-c2cscn2)n1 [Compound 30, 4-[4-(2-aminoethyl)phenyl]-3-[2-methyl-6-(1,3-thiazol-4-yl)pyrimidin-4-yl]oxybenzonitrile] | < 0.01 µM
7 | Cc1nc(Oc2cc(C#N)ccc2-c2ccc(CCN)cc2)cc(N2CCCOCC2)n1 [Compound 31, 4-[4-(2-aminoethyl)phenyl]-3-[2-methyl-6-(1,4-oxazepan-4-yl)pyrimidin-4-yl]oxybenzonitrile] | 0.01 to 1 µM
8 | Cc1nc(Oc2cc(C#N)ccc2-c2ccc(CCN)cc2)cc(-c2ccsc2)n1 [Compound 32, 4-[4-(2-aminoethyl)phenyl]-3-(2-methyl-6-thiophen-3-ylpyrimidin-4-yl)oxybenzonitrile] | < 0.01 µM
9 | Cc1nc(Oc2cc(C#N)ccc2-c2ccc(CCN)cc2)cc(-c2cccs2)n1 [Compound 33, 4-[4-(2-aminoethyl)phenyl]-3-(2-methyl-6-thiophen-2-ylpyrimidin-4-yl)oxybenzonitrile] | < 0.01 µM
10 | Cc1nc(Oc2cc(C#N)ccc2-c2ccc(CCN)cc2)cc(-c2ncco2)n1 [Compound 34, 4-[4-(2-aminoethyl)phenyl]-3-[2-methyl-6-(1,3-oxazol-2-yl)pyrimidin-4-yl]oxybenzonitrile] | 0.01 to 1 µM
11 | Cc1nc(OCC(F)(F)F)cc(Oc2cc(C#N)ccc2-c2ccc(CCN)cc2)n1 [Compound 35, 4-[4-(2-aminoethyl)phenyl]-3-[2-methyl-6-(2,2,2-trifluoroethoxy)pyrimidin-4-yl]oxybenzonitrile] | 0.01 to 1 µM
12 | Cc1nc(OCCCF)cc(Oc2cc(C#N)ccc2-c2ccc(CCN)cc2)n1 [Compound 36, 4-[4-(2-aminoethyl)phenyl]-3-[6-(3-fluoropropoxy)-2-methylpyrimidin-4-yl]oxybenzonitrile] | 0.01 to 1 µM
13 | Cc1nc(OCCC(F)(F)F)cc(Oc2cc(C#N)ccc2-c2ccc(CCN)cc2)n1 [Compound 37, 4-[4-(2-aminoethyl)phenyl]-3-[2-methyl-6-(3,3,3-trifluoropropoxy)pyrimidin-4-yl]oxybenzonitrile] | > 1 µM
14 | CCCCOc1cc(Oc2cc(C#N)ccc2-c2ccc(CCN)cc2)nc(C)n1 [Compound 38, 4-[4-(2-aminoethyl)phenyl]-3-(6-butoxy-2-methylpyrimidin-4-yl)oxybenzonitrile] | > 1 µM
15 | Cc1nc(OCCC(C)C)cc(Oc2cc(C#N)ccc2-c2ccc(CCN)cc2)n1 [Compound 41, 4-[4-(2-aminoethyl)phenyl]-3-[2-methyl-6-(3-methylbutoxy)pyrimidin-4-yl]oxybenzonitrile] | > 1 µM
16 | Cc1nc(OCCC(C)(C)C)cc(Oc2cc(C#N)ccc2-c2ccc(CCN)cc2)n1 [Compound 42, 4-[4-(2-aminoethyl)phenyl]-3-[6-(3,3-dimethylbutoxy)-2-methylpyrimidin-4-yl]oxybenzonitrile] | > 1 µM

Further lines, results first:

Row | IC50 | SMILES
17 | > 1 µM | Cc1nc(OCC2CCCCC2)cc(Oc2cc(C#N)ccc2-c2ccc(CCN)cc2)n1 [Compound 39, 4-[4-(2-aminoethyl)phenyl]-3-[6-(cyclohexylmethoxy)-2-methylpyrimidin-4-yl]oxybenzonitrile]
18 | > 1 µM | Cc1nc(Oc2cc(C#N)ccc2-c2ccc(CCN)cc2)cc(-c2nccs2)n1 [Compound 40, 4-[4-(2-aminoethyl)phenyl]-3-[2-methyl-6-(1,3-thiazol-2-yl)pyrimidin-4-yl]oxybenzonitrile]
19 | 0.01 to 1 µM | Cc1nc(OCC2CCC2)cc(Oc2cc(C#N)ccc2-c2ccc(CCN)cc2)n1 [Compound 43, 4-[4-(2-aminoethyl)phenyl]-3-[6-(cyclobutylmethoxy)-2-methylpyrimidin-4-yl]oxybenzonitrile]
20 | > 1 µM | Cc1nc(OCC2CCCC2)cc(Oc2cc(C#N)ccc2-c2ccc(CCN)cc2)n1 [Compound 44, 4-[4-(2-aminoethyl)phenyl]-3-[6-(cyclopentylmethoxy)-2-methylpyrimidin-4-yl]oxybenzonitrile]
21 | 0.01 to 1 µM | Cc1nc(Oc2cc(C#N)ccc2-c2ccc(CCN)cc2)cc(OC2CCCC2)n1 [Compound 45, 4-[4-(2-aminoethyl)phenyl]-3-(6-cyclopentyloxy-2-methylpyrimidin-4-yl)oxybenzonitrile]
22 | < 0.01 µM | Cc1nc(Oc2cc(C#N)ccc2-c2ccc(CCN)cc2)cc(C2CCCC2)n1 [Compound 46, 4-[4-(2-aminoethyl)phenyl]-3-(6-cyclopentyl-2-methylpyrimidin-4-yl)oxybenzonitrile]
23 | 0.01 to 1 µM | Cc1nc(OCC(C)(C)C)cc(Oc2cc(C#N)ccc2-c2ccc(CCN)cc2)n1 [Compound 47, 4-[4-(2-Aminoethyl)phenyl]-3-[6-(2,2-dimethylpropoxy)-2-methylpyrimidin-4-yl]oxybenzonitrile]
24 | 0.01 to 1 µM | COCCOc1cc(Oc2cc(C#N)ccc2-c2ccc(CCN)cc2)nc(C)n1 [Compound 48, 4-[4-(2-aminoethyl)phenyl]-3-[6-(2-methoxyethoxy)-2-methylpyrimidin-4-yl]oxybenzonitrile]
25 | 0.01 to 1 µM | Cc1nc(OCC2(C)CC2)cc(Oc2cc(C#N)ccc2-c2ccc(CCN)cc2)n1 [Compound 49, 4-[4-(2-aminoethyl)phenyl]-3-[2-methyl-6-[(1-methylcyclopropyl)methoxy]pyrimidin-4-yl]oxybenzonitrile]
26 | < 0.01 µM | N#Cc1ccc(-c2ccc(CCN)cc2)c(Oc2cnnc(N3CCOCC3)c2)c1 [Compound 50, 4-[4-(2-aminoethyl)phenyl]-3-(6-morpholin-4-ylpyridazin-4-yl)oxybenzonitrile]
27 | > 1 µM | N#Cc1ccc(-c2ccc(C(O)CN)cc2)c(Oc2cnnc(N3CCOCC3)c2)c1 (stereo not drawn) [Compound 51, 4-[4-(2-amino-1-hydroxyethyl)phenyl]-3-(6-morpholin-4-ylpyridazin-4-yl)oxybenzonitrile]
28 | 0.01 to 1 µM | Cc1nc(Oc2cc(C#N)ccc2-c2ccc(C3CNC3)cc2)cc(N2CCOCC2)n1 [Compound 52, 4-[4-(azetidin-3-yl)phenyl]-3-(2-methyl-6-morpholin-4-ylpyrimidin-4-yl)oxybenzonitrile]
29 | 0.01 to 1 µM | Cc1nc(Oc2cc(C#N)ccc2-c2ccc(C3CCNC3)cc2)cc(N2CCOCC2)n1 (stereo not drawn) [Compound 53, 3-(2-methyl-6-morpholin-4-ylpyrimidin-4-yl)oxy-4-(4-pyrrolidin-3-ylphenyl)benzonitrile]
30 | > 1 µM | CCOC(=O)CCNCCc1ccc(-c2ccc(C#N)cc2Oc2cc(N3CCOCC3)nc(C)n2)cc1 [Compound 54, ethyl 3-[2-[4-[4-cyano-2-(2-methyl-6-morpholin-4-ylpyrimidin-4-yl)oxyphenyl]phenyl]ethylamino] propanoate]
